Measurements from patent publication US5530126A, “Process for the preparation of substituted 6-(pyrazol-3yl)-1,4-benzoxazin-3-ones” (Monsanto Company, priority 1994, dated 1996).

Assays:
Format in all cases: in vivo
[1] = tested on: Barnyardgrass; assay: Pre-emergence herbicide test; details: Echinochloa crus-galli, read-out: % plant inhibition (Bygr); for inhibition at 1120 g/ha: 1.12 kg/ha; for inhibition at 11210 g/ha: 11.21 kg/ha
Procedure, shortened: (§1)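 Compound applied pre-emergence directly onto sown seeds in soil, then seeds covered with untreated topsoil. Plants grown in greenhouse with bottom watering. Inhibition (%) recorded visually at about 11 days.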

[2] = tested on: Wild buckwheat; assay: Pre-emergence herbicide test; details: Fallopia convolvulus, read-out: % plant inhibition (Wibw); for inhibition at 1120 g/ha: 1.12 kg/ha; for inhibition at 11210 g/ha: 11.21 kg/ha
Procedure, shortened: as §1

[3] = tested on: Cocklebur; assay: Pre-emergence herbicide test; details: Xanthium strumarium, read-out: % plant inhibition (Cobu); for inhibition at 1120 g/ha: 1.12 kg/ha; for inhibition at 11210 g/ha: 11.21 kg/ha
Procedure, shortened: as §1

[4] = tested on: Downy Brome; assay: Pre-emergence herbicide test; details: Bromus tectorum, read-out: % plant inhibition (Dobr); for inhibition at 1120 g/ha: 1.12 kg/ha; for inhibition at 11210 g/ha: 11.21 kg/ha
Procedure, shortened: as §1

[5] = tested on: Annual bluegrass; assay: Pre-emergence herbicide test; details: read-out: % plant inhibition (Anbg); for inhibition at 1120 g/ha: 1.12 kg/ha; for inhibition at 11210 g/ha: 11.21 kg/ha
Procedure, shortened: as §1

[6] = tested on: Yellow nutsedge; assay: Pre-emergence herbicide test; details: Cyperus, read-out: % plant inhibition (Yens); for inhibition at 1120 g/ha: 1.12 kg/ha; for inhibition at 11210 g/ha: 11.21 kg/ha
Procedure, shortened: as §1

[7] = tested on: Velvetleaf; assay: Pre-emergence herbicide test; details: Abutilon theophrasti, read-out: % plant inhibition (Vele); for inhibition at 1120 g/ha: 1.12 kg/ha; for inhibition at 11210 g/ha: 11.21 kg/ha
Procedure, shortened: as §1

[8] = tested on: Indian Mustard; assay: Pre-emergence herbicide test; details: Brassica juncea, read-out: % plant inhibition (Inmu); for inhibition at 1120 g/ha: 1.12 kg/ha; for inhibition at 11210 g/ha: 11.21 kg/ha
Procedure, shortened: as §1

[9] = tested on: Seedling johnsongrass; assay: Pre-emergence herbicide test; details: Sorghum halepense, read-out: % plant inhibition (Sejg); for inhibition at 1120 g/ha: 1.12 kg/ha; for inhibition at 11210 g/ha: 11.21 kg/ha
Procedure, shortened: as §1

[10] = tested on: Morningglory; assay: Pre-emergence herbicide test; details: Ipomoea, read-out: % plant inhibition (Mogl); for inhibition at 1120 g/ha: 1.12 kg/ha; for inhibition at 11210 g/ha: 11.21 kg/ha
Procedure, shortened: as §1

[11] = tested on: Barnyardgrass; assay: Post-emergence herbicide test; details: Echinochloa crus-galli, read-out: % plant inhibition (Bygr); for inhibition at 1120 g/ha: 1.12 kg/ha; for inhibition at 11210 g/ha: 11.21 kg/ha
Procedure, shortened: (§2)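 Seeds or propagules are pressed into compacted topsoil, covered and sub-irrigated in the greenhouse. At two to three weeks the plants are atomizer-sprayed (170.3 kPa, 1870 L/Ha, ~0.4% emulsifier by volume). Percent inhibition relative to control is observed about 10–14 days later.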

[12] = tested on: Wild buckwheat; assay: Post-emergence herbicide test; details: Fallopia convolvulus, read-out: % plant inhibition (Wibw); for inhibition at 1120 g/ha: 1.12 kg/ha; for inhibition at 11210 g/ha: 11.21 kg/ha
Procedure, shortened: as §2

[13] = tested on: Cocklebur; assay: Post-emergence herbicide test; details: Xanthium strumarium, read-out: % plant inhibition (Cobu); for inhibition at 1120 g/ha: 1.12 kg/ha; for inhibition at 11210 g/ha: 11.21 kg/ha
Procedure, shortened: as §2

[14] = tested on: Downy Brome; assay: Post-emergence herbicide test; details: Bromus tectorum, read-out: % plant inhibition (Dobr); for inhibition at 1120 g/ha: 1.12 kg/ha; for inhibition at 11210 g/ha: 11.21 kg/ha
Procedure, shortened: as §2

[15] = tested on: Annual bluegrass; assay: Post-emergence herbicide test; details: read-out: % plant inhibition (Anbg); for inhibition at 1120 g/ha: 1.12 kg/ha; for inhibition at 11210 g/ha: 11.21 kg/ha
Procedure, shortened: as §2

[16] = tested on: Yellow nutsedge; assay: Post-emergence herbicide test; details: Cyperus, read-out: % plant inhibition (Yens); for inhibition at 1120 g/ha: 1.12 kg/ha; for inhibition at 11210 g/ha: 11.21 kg/ha
Procedure, shortened: as §2

[17] = tested on: Velvetleaf; assay: Post-emergence herbicide test; details: Abutilon theophrasti, read-out: % plant inhibition (Vele); for inhibition at 1120 g/ha: 1.12 kg/ha; for inhibition at 11210 g/ha: 11.21 kg/ha
Procedure, shortened: as §2

[18] = tested on: Indian Mustard; assay: Post-emergence herbicide test; details: Brassica juncea, read-out: % plant inhibition (Inmu); for inhibition at 1120 g/ha: 1.12 kg/ha; for inhibition at 11210 g/ha: 11.21 kg/ha
Procedure, shortened: as §2

[19] = tested on: Seedling johnsongrass; assay: Post-emergence herbicide test; details: Sorghum halepense, read-out: % plant inhibition (Sejg); for inhibition at 1120 g/ha: 1.12 kg/ha; for inhibition at 11210 g/ha: 11.21 kg/ha
Procedure, shortened: as §2

[20] = tested on: Morningglory; assay: Post-emergence herbicide test; details: Ipomoea, read-out: % plant inhibition (Mogl); for inhibition at 1120 g/ha: 1.12 kg/ha; for inhibition at 11210 g/ha: 11.21 kg/ha
Procedure, shortened: as §2

Row | SMILES | inhibition at 11210 g/ha [1] [%] | inhibition at 11210 g/ha [2] [%] | inhibition at 11210 g/ha [3] [%] | inhibition at 11210 g/ha [4] [%] | inhibition at 11210 g/ha [5] [%] | inhibition at 11210 g/ha [6] [%] | inhibition at 11210 g/ha [7] [%] | inhibition at 11210 g/ha [8] [%] | inhibition at 11210 g/ha [9] [%] | inhibition at 11210 g/ha [10] [%] | inhibition at 11210 g/ha [11] [%] | inhibition at 11210 g/ha [12] [%] | inhibition at 11210 g/ha [13] [%] | inhibition at 11210 g/ha [14] [%] | inhibition at 11210 g/ha [15] [%] | inhibition at 11210 g/ha [16] [%] | inhibition at 11210 g/ha [17] [%] | inhibition at 11210 g/ha [18] [%] | inhibition at 11210 g/ha [19] [%] | inhibition at 11210 g/ha [20] [%] | other results
1 | Cn1nc(-c2cc(C=NOCC(N)=O)c(Cl)cc2F)c(Cl)c1C(F)(F)F [Compound 131] | – | – | – | – | – | – | – | – | – | – | – | – | – | – | – | – | – | – | – | – | inhibition at 1120 g/ha [1]: 40%; inhibition at 1120 g/ha [2]: 100%; inhibition at 1120 g/ha [3]: 80%; inhibition at 1120 g/ha [4]: 30%; inhibition at 1120 g/ha [5]: 0%; inhibition at 1120 g/ha [6]: 20%; inhibition at 1120 g/ha [7]: 100%; inhibition at 1120 g/ha [8]: 90%; inhibition at 1120 g/ha [9]: 70%; inhibition at 1120 g/ha [10]: 100%; inhibition at 1120 g/ha [11]: 0%; inhibition at 1120 g/ha [12]: 100%; inhibition at 1120 g/ha [13]: 100%; inhibition at 1120 g/ha [14]: 20%; inhibition at 1120 g/ha [15]: 20%; inhibition at 1120 g/ha [16]: 30%; inhibition at 1120 g/ha [17]: 100%; inhibition at 1120 g/ha [18]: 40%; inhibition at 1120 g/ha [19]: 50%; inhibition at 1120 g/ha [20]: 100%
2 | Cn1nc(-c2cc(CBr)c(Cl)cc2F)c(Cl)c1C(F)(F)F [Compound 108, 3-[5-(bromomethyl)-4-chloro-2-fluorophenyl]-4-chloro-1-methyl-5-(trifluoromethyl)-1H-pyrazole] | 100 | 100 | 80 | 100 | 50 | 20 | 100 | 100 | 90 | 90 | 100 | 100 | 100 | 100 | 90 | 0 | 100 | 100 | 90 | 100 | –
3 | Cn1nc(C(F)(F)F)c(Cl)c1-c1cc([N+](=O)[O-])c(F)cc1F [Compound 77] | 30 | 20 | 0 | 10 | 80 | 0 | 30 | 30 | 40 | 0 | 20 | 60 | 20 | 0 | 20 | 0 | 30 | 60 | 20 | 10 | –
4 | COc1cc(F)c(-c2c(Cl)c(C(F)(F)F)nn2C)cc1[N+](=O)[O-] [Compound 78] | 0 | 0 | 0 | 0 | 0 | 0 | 0 | 0 | 0 | 0 | 0 | 30 | 10 | 10 | 0 | 0 | 40 | 40 | 10 | 10 | –
5 | CCOC(=O)CON=C(C)c1cc(-c2nn(C)c(C(F)(F)F)c2Cl)c(F)cc1Cl [Compound 104] | – | – | – | – | – | – | – | – | – | – | – | – | – | – | – | – | – | – | – | – | inhibition at 1120 g/ha [1]: 10%; inhibition at 1120 g/ha [2]: 70%; inhibition at 1120 g/ha [3]: 20%; inhibition at 1120 g/ha [4]: 80%; inhibition at 1120 g/ha [5]: 20%; inhibition at 1120 g/ha [6]: 0%; inhibition at 1120 g/ha [7]: 90%; inhibition at 1120 g/ha [8]: 80%; inhibition at 1120 g/ha [9]: 80%; inhibition at 1120 g/ha [10]: 80%; inhibition at 1120 g/ha [11]: 50%; inhibition at 1120 g/ha [12]: 100%; inhibition at 1120 g/ha [13]: 70%; inhibition at 1120 g/ha [14]: 40%; inhibition at 1120 g/ha [15]: 30%; inhibition at 1120 g/ha [16]: 20%; inhibition at 1120 g/ha [17]: 100%; inhibition at 1120 g/ha [18]: 40%; inhibition at 1120 g/ha [19]: 80%; inhibition at 1120 g/ha [20]: 100%
